The assay concerns human neutrophil adhesion to TNFα, IL-1α, and LPS-stimulated human umbilical vein endothelial cells. The experiment in a line: Inhibition of human neutrophil adhesion to stimulated HUVEC (51Cr-labeled neutrophils). In kind it is cell-based. An excerpt: METHOD FOR DETERMINING THE INHIBITION OF HUMAN NEUTROPHIL ADHESION TO TNFα, IL-1α, AND LPS-STIMULATED HUMAN UMBILICAL VEIN ENDOTHELIAL CELLS BY 3-ALKYLOXY-, ARYLOXY-, OR ARYLALKYLOXY BENZO[b]THIOPHENE-2-CARBOXAMIDES
Neutrophils were isolated from anticoagulant-treated venous blood obtained from healthy human volunteers according to the method of Ferrante and Thong (J. Immunol. Methods 1978;24:389-93).
Second passage human umbilical vein endothelial cells (HUVEC) (Clonetics, San Diego, Calif.) were seeded into Falcon 24-well cell culture plates (Becton Dickinson, Lincoln Park, N.J.) at approximately 2×10^4 cells per well. The cells were grown to confluent monolayers in endothelial basal medium (EBM, Clonetics) supplemented with 5% fetal calf serum (Hyclone Laboratories, Logan, Utah), 10 ng/mL EGF, 1 μg/mL hydrocortisone, 0.4% bovine brain extract (Clonetics) in 5% CO2 at 37° C.
Neutrophils (30×10^6) were labeled for 60 minutes at 37° C. with 100 μCi Na^51 CrO4 (ICN Biomedicals, Costa Mesa, Calif.) in 2.0 mL Ca^2+ - and Mg^2+ -free Hanks' balanced salt solution (HBSS, GIBCO Laboratories, Grand Island, N.Y.). The cells were washed two times in HBSS and suspended in unsupplemented EBM.
Stimulation of HUVEC with tumor necrosis factor-α (TNFα) (Genzyme, Cambridge, Mass.) , interleukin (IL-1α) (Genzyrne) or E. coli 0111:B4 lipopolysaccharide (LPS) (Sigma) in the presence or absence of drug was initiated 4 hours prior to the addition of neutrophils. The suspension medium was unsupplemented EBM or supplemented EBM for studies with cytokines or LPS, respectively. […] Immediately prior to addition of ^51 Cr-labeled neutrophils to the HUVEC monolayers, the cultures were washed with 1 mL unsupplemented media to remove stimulus and/or drug. Neutrophils (5×10^5) were then added to the HUVEC in 0.5 mL unsupplemented media and incubated at 37° C. for 30 minutes. Nonadherent neutrophils were removed by aspiration. Following an additional wash, adherent neutrophils were lysed with 0.5 mL 1N NH4 OH overnight at 37° C. Lysates were collected and the radioactivity in each well was determined by gamma ray spectroscopy.

The molecule `CC(C)Oc1c(C(N)=O)sc2ccc(Cl)cc12` [Example 3, 5-Chloro-3-(1-methylethoxy)benzo[b]thiophene-2-carboxamide] registered an inhibition at 100 µM (Table 1, at 100 μM) of 72%.

For `Cc1ccc2sc(C(N)=O)c(OC(C)C)c2c1` [Example 4, 5-Methyl-3-(1-methylethoxy)benzo[b]thiophene-2-carboxamide], the inhibition at 100 µM (Table 1, at 100 μM) is 61%. In the case of `CC(C)Oc1c(C(N)=O)sc2ccc([N+](=O)[O-])cc12` [Example 5, 3-(1-Methylethoxy)-5-nitrobenzo[b]thiophene2-carboxamide], 100 µM produced 40% inhibition (Table 1, at 100 μM). For `COc1cccc2c(OC(C)C)c(C(N)=O)sc12` [Example 6, 7-Methoxy-3-(1-methylethoxy)benzo[b]thiophene2-carboxamide], under “Table 1, at 100 μM”, 100 µM produced 35% inhibition.

Molecule `COc1ccc2sc(C(N)=O)c(OC)c2c1` [Example 7, 3,5-Dimethoxybenzo[b]thiophene-2-carboxamide] registered an inhibition at 100 µM (Table 1, at 100 μM) of 60%. Same read-out and setting: for `COc1ccc2sc(C(N)=O)c(OCc3ccccc3)c2c1` [Example 8, 5-Methoxy-3-(phenylmethoxy)benzo[b]thiophene2-carboxamide] the value was 57%. Turning to `CC(C)Oc1c(C(N)=O)sc2ccc(O)cc12` [Example 10, 5-Hydroxy-3-(1-methylethoxy)benzo[b]thiophene-2-carboxamide], half-maximal inhibition (Table 1) (IC50) required 1.2 µM. Consider `COc1ccc2c(OC(C)C)c(C(N)=O)sc2c1` [Example 11, 6-Methoxy-3-(1-methylethoxy)benzo[b]thiophene-2-carboxamide], for which, where the note is “Table 1, at 100 μM”, the inhibition at 100 µM was determined as 24%. Molecule `COc1ccc2sc(C(=O)Nc3cccc(C(=O)O)c3)c(OC(C)C)c2c1` [Example 13, 3-[[[5-Methoxy-3-(1-methylethoxy)benzo[b]thien-2-yl]carbonyl]amino]benzoic acid] returned an inhibition at 100 µM (Table 2, at 100 μM) of 28%.

`CCOC(=O)c1ccccc1NC(=O)c1sc2ccc(OC)cc2c1OC(C)C` [Example 14] registered an inhibition at 100 µM (Table 2, at 100 μM) of 32%. Molecule `COc1ccc2sc(C(=O)Nc3ccccc3C(=O)O)c(OC(C)C)c2c1` [Example 15, 2-[[[5-Methoxy-3-(1-methylethoxy)benzo[b]thien2-yl]carbonyl]amino]benzoic acid] had an inhibition at 100 µM (Table 2, at 100 μM) of 35%. Same read-out and setting: with `COc1ccc2sc(C(=O)NCc3ccc(C(=O)O)cc3)c(OC(C)C)c2c1` [Example 16, 4-[[[5-Methoxy-3-(1-methylethoxy)benzo[b]thien-2-yl]carbonyl]aminomethyl]benzoic acid] the figure was 47%; with `COC(=O)Cc1ccc(NC(=O)c2sc3ccc(OC)cc3c2OC(C)C)cc1` [Example 17], 27%; with `COc1ccc2sc(C(=O)Nc3ccc(CC(=O)O)cc3)c(OC(C)C)c2c1` [Example 18, 4-[[[5-Methoxy-3-(1-methylethoxy)benzo[b]thien2-yl]carbonyl]amino]benzeneacetic acid], 32%. In the case of `COC(=O)Cc1cccc(NC(=O)c2sc3ccc(OC)cc3c2OC(C)C)c1` [Example 19, Methyl 3-[[[5-Methoxy-3-(1-methylethoxy)benzo[b]thien-2-yl]carbonyl]amino]benzeneacetate], the inhibition at 100 µM (Table 2, at 100 μM) was 45%. Where the note is “Table 2, at 100 μM”, `COc1ccc2sc(C(=O)Nc3cccc(CC(=O)O)c3)c(OC(C)C)c2c1` [Example 20, 3-[[[5-Methoxy-3-(1-methylethoxy)benzo[b]thien-2-yl]carbonyl]amino]benzeneacetic acid] returned an inhibition at 100 µM of 70%. The same measure, in the same setting: for `COC(=O)CCCCNC(=O)c1sc2ccc(OC)cc2c1OC(C)C` [Example 21, Methyl 5-[[[5-methoxy-3-(1-methylethoxy)benzo[b]thien2-yl]carbonyl]amino]pentanoate] the value was 8%. `COc1ccc2sc(C(=O)NCCCCC(=O)O)c(OC(C)C)c2c1` [Example 22, 5-[[[5-Methoxy-3-(1-methylethoxy)benzo[b]thien2-yl]carbonyl]amino]pentanoicacid] gave an inhibition at 100 µM (Table 2, at 100 μM) of 9%. In the case of `COc1ccc2sc(C(=O)Nc3ccsc3C(=O)O)c(OC(C)C)c2c1` [Example 23], where the note is “Table 2, at 100 μM”, testing at 100 µM gave an inhibition of 20%.

With `CNC(=O)c1sc2ccc(OC)cc2c1OC(C)C` [Example 24], 100 µM produced 78% inhibition (Table 2, at 100 μM). `CCNC(=O)c1sc2ccc(OC)cc2c1OC(C)C` [Example 25]: at 100 µM the inhibition (Table 2, at 100 μM) was 64%. The same measure, in the same setting: for `COc1ccc2sc(C(=O)Nc3ccccc3)c(OC(C)C)c2c1` [Example 26, 5-Methoxy-3-(1-methylethoxy)-N-phenylbenzo[b]thiophene-2-carboxaraide] the value was 12%.

In turn, `COc1ccc2sc(C(=O)NCc3ccccc3)c(OC(C)C)c2c1` [Example 27, 5-Methoxy-3-(1-methylethoxy)-N-(phenylmethyl)benzo[b]thiophene-2-carboxamide] had an inhibition at 100 µM (Table 2, at 100 μM) of 35%. `COc1ccc2c(c1)C(OC(C)C)=C(C(N)=O)S2(=O)=O` [Example 29, 5-Methoxy-3-(1-methylethoxy)benzo[b]thiophene2-carboxamide 1,1'-dioxide] came in with an inhibition at 100 µM (Table 3, at 100 μM) of 4%.

`COc1ccc2sc(C(N)=O)c(OC(C)(C)C)c2c1` [Example 30, 3-(1,1-Dimethylethoxy)-5-methoxybenzo[b]thiophene2-carboxamide] yielded an inhibition at 100 µM (Table 1, at 100 μM) of 100%. On the same count and under the same terms, with `CC(C)Oc1c(C(N)=O)sc2cc(Cl)ccc12` [Example 31, 6-Chloro-3-(1-thylethoxy)benzo[b]thiophene-2-carboxamide] the figure was 26%. The same measure, in the same setting: with `CC(C)Oc1c(C(N)=O)sc2ccc(N)cc12` [Example 32, 5-Amino-3-(1-methylethoxy)benzo[b]thiophene-2-carboxamide] the figure was 49%. Where the note is “Table 2, at 100 μM”, `COC(=O)CCCNC(=O)c1sc2ccc(OC)cc2c1OC(C)C` [Example 33, Methyl 4-[[[5-methoxy-3-(1-methylethoxy)benzo[b]thien-2-yl]carbonyl]amino]butanoate] gave an inhibition at 100 µM of 100%. Regarding `COc1ccc2sc(C(=O)NCCCC(=O)O)c(OC(C)C)c2c1` [Example 34, 4-[[[5-Methoxy-3-(1-methylethoxy)benzo[b]thien-2-yl]carbonyl]amino]butanoicacid], under “Table 2, at 100 μM”, testing at 100 µM gave an inhibition of 35%.

For the setting “Table 2, at 100 μM”, `COc1ccc2sc(C(=O)NC(C)C)c(OC(C)C)c2c1` [Example 35, 5-Methoxy-3-(1-methylethoxy)-N-(1-methylethyl)benzo[b]thiophene-2-carboxamide] gave an inhibition at 100 µM of 100%.

For orientation: inhibition means the share of the control response that was lost under treatment. In general, IC50 refers to the midpoint of a concentration-inhibition curve.

The record behind these values is patent US5356926A, “3-alkyloxy-, aryloxy-, or arylalkyloxy-benzo [β]thiophene-2-carboxamides as inhibitors of cell adhesion” (Warner-Lambert Company, priority 1993, dated 1994).
